Consider 8 compounds from PubChem BioAssay (NCI).

Each structure is given as a SMILES string.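 Each compound was tested at five concentrations against cells in 96-well plates for 48 hours. The concentration for full growth arrest is given as TGI.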

Test systems include SW-620 colon; SF-295 CNS; A549 NSCLC; COLO 205 colon; M14 melanoma; HOP-92 NSCLC; RXF 393 renal; NCI-H460 lung; U251 CNS; HCT-15 colon; OVCAR-5 ovarian; SNB-75 CNS; SK-MEL-28 melanoma; MALME-3M melanoma; UACC-257 melanoma; EKVX NSCLC; MDA-MB-435; DU-145 prostate; IGROV1 ovarian.
What all share (assay): NCI tumour cell line growth inhibition, 48 h

Consider `C1C2CC3CC1CC(Nc1nc(NC45CC6CC(CC(C6)C4)C5)nc(NC45CC6CC(CC(C6)C4)C5)n1)(C2)C3`, for which the TGI is more than 100 µM with SW-620 colon; more than 100 µM in the test on SF-295 CNS; more than 100 µM in the test on A549 NSCLC; more than 94.9 µM with COLO 205 colon; more than 100 µM in the test with M14 melanoma; more than 100 µM with HOP-92 NSCLC. In addition, the TGI with RXF 393 renal was more than 100 µM; in the test with NCI-H460 lung it was more than 100 µM; in the test on U251 CNS, more than 100 µM; in the test with HCT-15 colon it was more than 100 µM; in the test on OVCAR-5 ovarian it was more than 100 µM; in the test with SNB-75 CNS, more than 79.2 µM. Moreover, the TGI was more than 93.2 µM with SK-MEL-28 melanoma; more than 100 µM in the test on MALME-3M melanoma; more than 100 µM in the test on UACC-257 melanoma; more than 77.5 µM in the test on EKVX NSCLC; more than 100 µM with MDA-MB-435; more than 100 µM with DU-145 prostate.

Regarding `CC(C)CC1C(=O)NCCC(NC(=O)C(Cc2ccc(OC(C)(C)C)cc2)NC(=O)OC(C)(C)C)C(=O)NC(Cc2ccccc2)C(=O)NC(Cc2ccccc2)NC1=O` (stereo not drawn), the TGI with SW-620 colon turned out to be 13.6 µM; in the test on SF-295 CNS, 22.8 µM; in the test with COLO 205 colon, 11.7 µM; with M14 melanoma it was 32.2 µM; with HOP-92 NSCLC it was 32.1 µM; in the test with RXF 393 renal, 27.2 µM. Moreover, the TGI in the test with NCI-H460 lung was 15 µM; with U251 CNS, 27.2 µM; with HCT-15 colon, more than 100 µM; in the test with OVCAR-5 ovarian, 21.2 µM; in the test on SK-MEL-28 melanoma, 42.4 µM; with MALME-3M melanoma it was 32 µM. The TGI is 26.2 µM in the test with UACC-257 melanoma; 39.1 µM in the test on EKVX NSCLC; 31.7 µM in the test with IGROV1 ovarian; 12.2 µM with MDA-MB-435; more than 100 µM with DU-145 prostate.

For `CC(C)(C)OC(=O)N1CCc2[nH][nH]c(=O)c2C1`, the TGI in the test with SW-620 colon, in the test with SF-295 CNS, with A549 NSCLC, in the test on COLO 205 colon, in the test with M14 melanoma and in the test with HOP-92 NSCLC was more than 100 µM throughout. The TGI in the test with RXF 393 renal, with NCI-H460 lung, with U251 CNS, with HCT-15 colon, with SK-MEL-28 melanoma and in the test with MALME-3M melanoma was more than 100 µM each time. The TGI in the test with UACC-257 melanoma, in the test on EKVX NSCLC, in the test on IGROV1 ovarian, with MDA-MB-435 and in the test on DU-145 prostate was more than 100 µM in each case.

On to `COc1ccc(N2C(=O)C(=O)N(c3ccccc3[N+](=O)[O-])C2=S)cc1`, for which the TGI in the test on SW-620 colon was more than 100 µM; in the test with SF-295 CNS, more than 100 µM; in the test with A549 NSCLC, more than 100 µM; in the test on COLO 205 colon, 44.4 µM; in the test with HOP-92 NSCLC, 57.4 µM; with RXF 393 renal, 52.8 µM. Besides, the TGI in the test with NCI-H460 lung was more than 100 µM; with U251 CNS, more than 100 µM; with HCT-15 colon it was 40.5 µM; in the test on OVCAR-5 ovarian it was 63.4 µM; with SNB-75 CNS it was more than 100 µM; in the test with SK-MEL-28 melanoma, more than 100 µM. Also, the TGI is more than 100 µM in the test with MALME-3M melanoma; 47.3 µM in the test on UACC-257 melanoma; more than 100 µM in the test on EKVX NSCLC; more than 100 µM in the test on IGROV1 ovarian; 88.2 µM in the test with MDA-MB-435; more than 100 µM in the test with DU-145 prostate.

For the compound `Cc1cc2c(cc1Cl)SC(NS(=O)(=O)c1ccc(Cl)cc1)=NS2(=O)=O`, the TGI with SW-620 colon is more than 100 µM; in the test on SF-295 CNS it was 88.3 µM; with A549 NSCLC it was more than 100 µM; in the test with COLO 205 colon it was more than 100 µM; with M14 melanoma, more than 100 µM; with HOP-92 NSCLC it was 39.5 µM. The TGI with RXF 393 renal is 66.5 µM; with NCI-H460 lung, more than 100 µM; in the test on U251 CNS, more than 100 µM; in the test with HCT-15 colon it was more than 100 µM; in the test on OVCAR-5 ovarian, more than 100 µM; with SNB-75 CNS it was more than 100 µM. The TGI in the test on SK-MEL-28 melanoma, in the test on UACC-257 melanoma, in the test on EKVX NSCLC, with IGROV1 ovarian, with MDA-MB-435 and in the test on DU-145 prostate was more than 100 µM in each case.

For the compound `CC(C)C(=O)[C@@]1(C)SC[C@H]2CCN=C21`, the TGI is more than 100 µM in the test with SW-620 colon; more than 100 µM in the test on SF-295 CNS; more than 100 µM in the test on A549 NSCLC; more than 100 µM in the test on COLO 205 colon; more than 100 µM with M14 melanoma; 75 µM in the test with HOP-92 NSCLC. Besides, the TGI in the test with RXF 393 renal, in the test on NCI-H460 lung, in the test on HCT-15 colon, with OVCAR-5 ovarian, in the test with SK-MEL-28 melanoma and in the test on MALME-3M melanoma was more than 100 µM each time. The TGI in the test on UACC-257 melanoma, with EKVX NSCLC, with IGROV1 ovarian, in the test with MDA-MB-435 and in the test with DU-145 prostate was more than 100 µM in each case.

Consider `CC(=O)c1ccc(NCc2cc(O)ccc2O)cc1`, for which the TGI is more than 100 µM in the test with SW-620 colon; 34.6 µM with SF-295 CNS; 43.8 µM with COLO 205 colon; 38.4 µM in the test with M14 melanoma; 39.2 µM in the test with HOP-92 NSCLC; 27.9 µM in the test with RXF 393 renal. In addition, the TGI is 39.9 µM in the test on NCI-H460 lung; 54.5 µM with U251 CNS; more than 100 µM in the test with HCT-15 colon; 44.2 µM in the test with OVCAR-5 ovarian; 28 µM in the test with SNB-75 CNS; more than 100 µM with SK-MEL-28 melanoma. Besides, the TGI was 33.9 µM with UACC-257 melanoma; more than 100 µM with EKVX NSCLC; more than 100 µM in the test on IGROV1 ovarian; 58.6 µM in the test with MDA-MB-435; 58 µM in the test on DU-145 prostate.

Turning to `CN=c1nc2sc3c(c2c(NC(=S)NC)s1)CCCC3`, the TGI in the test with SW-620 colon is more than 100 µM; in the test with SF-295 CNS it was more than 100 µM; with COLO 205 colon, more than 100 µM; in the test on HOP-92 NSCLC, more than 100 µM; in the test with RXF 393 renal, 82.9 µM; in the test on NCI-H460 lung, more than 100 µM. Further, the TGI in the test with U251 CNS, in the test on HCT-15 colon, with OVCAR-5 ovarian, in the test with SK-MEL-28 melanoma, in the test on MALME-3M melanoma and with UACC-257 melanoma was more than 100 µM each time. The TGI in the test on EKVX NSCLC, in the test with IGROV1 ovarian, with MDA-MB-435 and in the test on DU-145 prostate was more than 100 µM each time.
